Assay results as given in patent US9102623B2, “Pyridinecarboxamides, useful-plant-protecting composition comprising them and processes for their preparation and their use” (Bayer Cropscience AG, priority 2007, dated 2015).

Test system: barley
Test: Post-emergence safener action in barley with the herbicide mesosulfuron-methyl
Type: in vivo
Settings: greenhouse, visual scoring of damage
Source text: The damage to the plants is scored visually using a scale of 0-100%, in comparison to control plants:
0%=no noticeable effect compared to the untreated plant
100%=the treated plants dies.
Seeds or rhizome pieces of monocotyledonous and dicotyledonous harmful plants and crop plants are placed in sandy loam soil in plastic pots, covered with soil and cultivated in the greenhouse under good growth conditions. Alternatively, harmful plants encountered in paddy rice cultivation are cultivated in pots in which the surface of the soil is covered by up to 2 cm of water. Three weeks after sowing, the test plants are treated at the three-leaf stage. The herbicide/safener active compound combinations according to the invention, formulated as emulsion concentrates, and in parallel tests the individual active compounds formulated in a corresponding manner, are sprayed at various dosages at a water application rate of […] (converted) onto the green parts of the plants, and, after the test plants were left to stand in the greenhouse for about 2 to 3 weeks under optimum growth conditions, the effect of the preparations is scored visually in comparison to untreated controls. In the case of rice or harmful plants encountered in the cultivation of rice, the active compounds are also added directly to the irrigation water (application analogously to the so-called granule application) or sprayed onto the plants and into the irrigation water. […]

| Structure (SMILES) | safener action for the herbicide mesosulfuron-methyl |
| --- | --- |
| CCC(CC)NC(=O)c1ccc(C(F)(F)Cl)[nH]c1=O [Compound 165] | good safener action |
| CC(C)C(C)NC(=O)c1ccc(C(F)(F)Cl)[nH]c1=O (centres unmarked) [Compound 163] | good safener action |
| COCCNC(=O)c1ccc(C(F)(F)C(F)(F)F)[nH]c1=O [Compound 398] | good safener action |
| O=C(NC1CCC1)c1cc(Br)c(C(F)(F)Cl)[nH]c1=O [Compound 1030] | good safener action |
| COCC(C)NC(=O)c1cc(Br)c(C(F)F)[nH]c1=O (centres unmarked) [Compound 1201, 5-Bromo-6-(difluoromethyl)-N-(2-methoxy-1-methylethyl)-2-oxo-1,2-dihydropyridine-3-carboxamide] | good safener action |
| CCNC(=O)c1ccc(C(F)(F)Cl)[nH]c1=O [Compound 116] | good safener action |
| CCC(C)NC(=O)c1ccc(C(F)(F)C(F)(F)F)[nH]c1=O (centres unmarked) [Compound 382, N-(1-Methylpropyl)-2-oxo-6-(pentafluoroethyl)-1,2-dihydropyridine-3-carboxamide] | good safener action |
| CCN(C)C(=O)c1ccc(C(F)(F)Cl)[nH]c1=O [Compound 124] | good safener action |
| CC(C)N(C)C(=O)c1ccc(C(F)(F)F)[nH]c1=O [Compound 13] | good safener action |
| CCN(CC)C(=O)c1ccc(C(F)(F)Cl)[nH]c1=O [Compound 128] | good safener action |
| CCN(C(=O)c1ccc(C(F)(F)Cl)[nH]c1=O)C(C)C [Compound 130] | good safener action |
| CCCNC(=O)c1ccc(C(F)(F)Cl)[nH]c1=O [Compound 117] | good safener action |
| COCC(C)NC(=O)c1ccc(C(F)(F)C(F)(F)F)[nH]c1=O (centres unmarked) [Compound 405] | good safener action |
| CNC(=O)c1ccc(C(F)(F)C(F)(F)F)[nH]c1=O [Compound 342] | good safener action |
| CCNC(=O)c1cc(Cl)c(C(F)(F)Cl)[nH]c1=O [Compound 571] | good safener action |
| O=C(NC1CC1)c1ccc(C(F)(F)Cl)[nH]c1=O [Compound 119] | good safener action |
| O=C(NCC(F)(F)C(F)(F)F)c1ccc(C(F)(F)F)[nH]c1=O [Compound 25] | good safener action |
| CNC(=O)c1ccc(C(F)(F)Cl)[nH]c1=O [Compound 115] | good safener action |
| O=C(NC1CCC1)c1ccc(C(F)(F)F)[nH]c1=O [Compound 7, N-Cyclobutyl-2-oxo-6-(trifluoromethyl)-1,2-dihydropyridine-3-carboxamide] | good safener action |
| O=C(NCC(F)(F)F)c1ccc(C(F)(F)F)[nH]c1=O [Compound 26] | good safener action |
| CCCCNC(=O)c1cc(Br)c(C(F)(F)Cl)[nH]c1=O [Compound 1029] | good safener action |
| CC(C)CNC(=O)c1ccc(C(F)(F)F)[nH]c1=O [Compound 30] | good safener action |
| O=C(NC1CC1)c1ccc(C(F)(F)C(F)(F)F)[nH]c1=O [Compound 346] | good safener action |
| CCCNC(=O)c1ccc(C(F)(F)C(F)(F)F)[nH]c1=O [Compound 344] | good safener action |

| Structure (SMILES) | safener action for the herbicide mesosulfuron-methyl |
| --- | --- |
| CCCC(C)NC(=O)c1ccc(C(F)(F)C(F)(F)F)[nH]c1=O (centres unmarked) [Compound 384] | good safener action |
| CC(C)(C)CNC(=O)c1ccc(C(F)(F)Cl)[nH]c1=O [Compound 138] | good safener action |
| CCCNC(=O)c1ccc(C(F)(F)F)[nH]c1=O [Compound 3] | good safener action |
| COCCNC(=O)c1ccc(C(F)(F)F)[nH]c1=O [Compound 57] | good safener action |
| CCC(CC)NC(=O)c1cc(I)c(C(F)(F)Cl)[nH]c1=O [Compound 1907, 6-[Chloro(difluoro)methyl]-N-(1-ethylpropyl)-5-iodo-2-oxo-1,2-dihydropyridine-3-carboxamide] | good safener action |
| NC(=O)c1cc(Br)c(C(F)(F)Cl)[nH]c1=O [Compound 1023] | good safener action |
| O=C(NC1CC1)c1ccc(C(F)(F)F)[nH]c1=O [Compound 5] | good safener action |
| CCCCNC(=O)c1ccc(C(F)(F)C(F)(F)Cl)[nH]c1=O [Compound 1487] | good safener action |
| O=C(NCC1CC1)c1ccc(C(F)(F)F)[nH]c1=O [Compound 22] | good safener action |
| NC(=O)c1ccc(C(F)(F)C(F)(F)Cl)[nH]c1=O [Compound 1481, 6-(2-Chloro-1,1,2,2-tetrafluoroethyl)-2-oxo-1,2-dihydropyridine-3-carboxamide] | good safener action |
| COCCCNC(=O)c1ccc(C(F)(F)C(F)(F)F)[nH]c1=O [Compound 407] | good safener action |
| COC(CNC(=O)c1ccc(C(F)(F)Cl)[nH]c1=O)OC [Compound 168] | good safener action |
| CCCC(C)NC(=O)c1ccc(C(F)(F)Cl)[nH]c1=O (centres unmarked) [Compound 157] | good safener action |
| O=C(NCC1CC1)c1ccc(C(F)(F)Cl)[nH]c1=O [Compound 136] | good safener action |
| CN(C)C(=O)c1ccc(C(F)(F)Cl)[nH]c1=O [Compound 123] | good safener action |
| NC(=O)c1cc(Cl)c(C(F)(F)F)[nH]c1=O [Compound 455, 5-Chloro-2-oxo-6-(trifluoromethyl)-1,2-dihydropyridine-3-carboxamide] | good safener action |
| C#CCN(C)C(=O)c1ccc(C(F)(F)F)[nH]c1=O [Compound 40] | good safener action |
| CNC(=O)c1ccc(C(F)(F)F)[nH]c1=O [Compound 1] | good safener action |
| CCC(C)NC(=O)c1cc(Br)c(C(F)(F)F)[nH]c1=O (centres unmarked) [Compound 950] | good safener action |
| CNC(=O)c1cc(Br)c(C(F)(F)F)[nH]c1=O [Compound 910] | good safener action |
| CCCCCNC(=O)c1ccc(C(F)(F)Cl)[nH]c1=O [Compound 134] | good safener action |
| C#CCN(C)C(=O)c1ccc(C(F)(F)Cl)[nH]c1=O [Compound 154] | good safener action |
| COCCNC(=O)c1ccc(C(F)(F)Cl)[nH]c1=O [Compound 171, 6-[Chloro(difluoro)methyl]-N-(2-methoxyethyl)-2-oxo-1,2-dihydropyridine-3-carboxamide] | good safener action |
